Where two headings read alike, the source gives them in different places.
How the values were obtained:
morningglory = assay: Test A pre-/postemergence herbicide test; assay type: in vivo, Ipomoea spp.; conditions: Ipomoea, 240 h; for pest or weed control at 500 g/ha: 500 g ai/ha; for pest or weed control at 2000 g/ha: 2000 g ai/ha
How it was run: (§1)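 Visual injury rating on a 0–100 scale (0 no effect, 100 complete control) versus untreated controls, about ten days after treatment in greenhouse. Pre: directed soil spray onto seeded sandy loam. Post: spray to runoff on plants 2–10 cm tall at one- to two-leaf stage.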

velvetleaf [1] = assay: Test A pre-/postemergence herbicide test; assay type: in vivo, Abutilon theophrasti; conditions: Abutilon theophrasti, 240 h; for pest or weed control at 2000 g/ha: 2000 g ai/ha
How it was run: as §1

cocklebur = assay: Test C pre-/postemergence herbicide test; assay type: in vivo, Xanthium strumarium; conditions: for pest or weed control at 250 g/ha: 250 g ai/ha; for pest or weed control at 125 g/ha: 125 g ai/ha
How it was run: (§2)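 Pre- and postemergence application, solvent/surfactant formulation; post at 1- to 4-leaf stage (2–18 cm). Greenhouse 12–14 d. Visual rating vs controls, 0 = no effect, 100 = complete control.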

goosegrass = assay: Test C pre-/postemergence herbicide test; assay type: in vivo, Eleusine indica; conditions: for pest or weed control at 125 g/ha: 125 g ai/ha
How it was run: as §2

lambsquarters = assay: Test C pre-/postemergence herbicide test; assay type: in vivo, Chenopodium album; conditions: for pest or weed control at 125 g/ha: 125 g ai/ha
How it was run: as §2

yellow nutsedge = assay: Test C pre-/postemergence herbicide test; assay type: in vivo, Cyperus esculentus; conditions: for pest or weed control at 125 g/ha: 125 g ai/ha
How it was run: as §2

soybean = assay: Test C pre-/postemergence herbicide test; assay type: in vivo, Glycine max; conditions: for plant injury at 125 g/ha: 125 g ai/ha
How it was run: as §2

[2] = system: common (oilseed) sunflower; assay: Test C pre-/postemergence herbicide test; assay type: in vivo, Helianthus annuus; conditions: Helianthus annuus, pre-emergence, read-out: Plant response rating, Sunflower
How it was run: as §2

velvetleaf [3] = assay: Test C pre-/postemergence herbicide test; assay type: in vivo, Abutilon theophrasti; conditions: Abutilon theophrasti, read-out: Plant response rating, Velvetleaf; for pest or weed control at 125 g/ha: 125 g ai/ha
How it was run: as §2

ducksalad = assay: Test C flooded paddy test; assay type: in vivo, Heteranthera limosa; conditions: Heteranthera limosa
barnyardgrass = assay: Test C flooded paddy test; assay type: in vivo, Echinochloa crus-galli; conditions: Echinochloa crus-galli
How it was run: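 After a postemergence application at 1 to 4 leaves (plants 2–18 cm high), or at 2 leaves for barnyardgrass in flooded paddy, plants stayed in the greenhouse for 12 to 14 days. Damage was then judged visually relative to control plants, with 100 indicating complete control.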

[4] = post-emergence, Postemergence, 0 to 100 scale, 0 no effect, 100 complete control, read-out: Plant response rating, Morningglory

Structure (SMILES): CCOC(=O)c1cccc(NC(=O)c2cc(C(C)(C)C)nn2CC)c1 [Compound 80, ethyl 3-[[[3-(1,1-dimethylethyl)-1-ethyl-1H-pyrazol-5-yl]carbonyl]-amino]benzoate]
- pest or weed control at 500 g/ha (morningglory; [4]): 40%
- pest or weed control at 2000 g/ha (morningglory; [4]): 50%
- pest or weed control at 500 g/ha (morningglory; pre-emergence, Preemergence, visual rating, 0 to 100 scale (0 no effect, 100 complete control), read-out: Morningglory plant response rating): 15%
- pest or weed control at 2000 g/ha (morningglory; pre-emergence, Preemergence, 0 to 100 scale, 0 no effect, 100 complete control, read-out: Morningglory plant response rating): 30%
- pest or weed control at 2000 g/ha (velvetleaf [1]; post-emergence, Postemergence, 0 to 100 scale, 0 no effect, 100 complete control, read-out: Plant response rating, Velvetleaf): 75%
- pest or weed control at 500 g/ha (velvetleaf [1]; pre-emergence, Preemergence, 500 g ai/ha, visual rating, 0 to 100 scale (0 no effect, 100 complete control), read-out: Velvetleaf plant response rating): 10%
- pest or weed control at 2000 g/ha (velvetleaf [1]; pre-emergence, Preemergence, visual rating, 0 to 100 scale (0 no effect, 100 complete control), read-out: Velvetleaf plant response rating): 10%
- Plant response rating (0 = no effect, 100 = complete control), Cocklebur (cocklebur; 62 g ai/ha, preemergence): 0
- pest or weed control at 250 g/ha (cocklebur; Xanthium strumarium, post-emergence, 312 h, Postemergence, scale 0 to 100, 0 no effect, 100 complete control, read-out: Plant response rating, Cocklebur): 100%
- pest or weed control at 125 g/ha (cocklebur; Xanthium strumarium, post-emergence, 312 h, postemergence, scale 0 to 100, read-out: Plant response rating, Cocklebur): 90%
- pest or weed control at 31 g/ha (cocklebur; Xanthium strumarium, post-emergence, 312 h, postemergence, 31 g ai/ha, scale 0 to 100, read-out: Plant response rating, Cocklebur): 70%
- pest or weed control at 62 g/ha (cocklebur; Xanthium strumarium, post-emergence, 312 h, postemergence, 62 g ai/ha, scale 0 to 100, read-out: Plant response rating, Cocklebur): 90%
- pest or weed control at 125 g/ha (cocklebur; Xanthium strumarium, pre-emergence, 312 h, scale 0 (no effect) to 100 (complete control), visual, 12 to 14 days, read-out: Plant response rating, Cocklebur): 10%
- pest or weed control at 250 g/ha (cocklebur; Xanthium strumarium, pre-emergence, 312 h, scale 0 to 100 (0 no effect, 100 complete control), visual, 12 to 14 days, read-out: Plant response rating, Cocklebur): 10%
- Plant response rating (0 = no effect, 100 = complete control), Goosegrass (goosegrass; 62 g ai/ha, preemergence): 10
- pest or weed control at 250 g/ha (goosegrass; Eleusine indica, post-emergence, 312 h, Postemergence, 250 g ai/ha, scale 0 to 100, 0 no effect, 100 complete control, read-out: Plant response rating, Goosegrass): 80%
- pest or weed control at 125 g/ha (goosegrass; Eleusine indica, post-emergence, 312 h, postemergence, scale 0 to 100, read-out: Plant response rating, Goosegrass): 80%
- pest or weed control at 62 g/ha (goosegrass; Eleusine indica, post-emergence, 312 h, postemergence, 62 g ai/ha, scale 0 to 100, read-out: Plant response rating, Goosegrass): 80%
- pest or weed control at 31 g/ha (goosegrass; Eleusine indica, pre-emergence, 312 h, 31 g ai/ha, preemergence, scale 0 to 100, read-out: Plant response rating, Goosegrass): 10%
- pest or weed control at 125 g/ha (goosegrass; Eleusine indica, pre-emergence, 312 h, scale 0 (no effect) to 100 (complete control), visual, 12 to 14 days, read-out: Plant response rating, Goosegrass): 10%
- Plant response rating (0 = no effect, 100 = complete control), Lambsquarters (lambsquarters; 62 g ai/ha, preemergence): 0
- pest or weed control at 250 g/ha (lambsquarters; Chenopodium album, post-emergence, Postemergence, 250 g ai/ha, scale 0 to 100, 0 no effect, 100 complete control, read-out: Plant response rating, Lambsquarters): 100%
- pest or weed control at 125 g/ha (lambsquarters; Chenopodium album, post-emergence, postemergence, scale 0 to 100, read-out: Plant response rating, Lambsquarters): 100%
- pest or weed control at 62 g/ha (lambsquarters; Chenopodium album, post-emergence, postemergence, 62 g ai/ha, scale 0 to 100, read-out: Plant response rating, Lambsquarters): 90%
- pest or weed control at 31 g/ha (lambsquarters; Chenopodium album, pre-emergence, 31 g ai/ha, preemergence, scale 0 to 100, read-out: Plant response rating, Lambsquarters): 0%
- pest or weed control at 125 g/ha (lambsquarters; Chenopodium album, pre-emergence, scale 0 (no effect) to 100 (complete control), visual, 12 to 14 days, read-out: Plant response rating, Lambsquarters): 10%
- Plant response rating (0 = no effect, 100 = complete control), Nutsedge, Yellow (yellow nutsedge; 62 g ai/ha, preemergence): 0
- pest or weed control at 250 g/ha (yellow nutsedge; Cyperus, post-emergence, Postemergence, 250 g ai/ha, scale 0 to 100, 0 no effect, 100 complete control, read-out: Plant response rating, Nutsedge, Yellow): 40%
- pest or weed control at 125 g/ha (yellow nutsedge; Cyperus, post-emergence, postemergence, scale 0 to 100, read-out: Plant response rating, Nutsedge, Yellow): 40%
- pest or weed control at 62 g/ha (yellow nutsedge; Cyperus, post-emergence, postemergence, 62 g ai/ha, scale 0 to 100, read-out: Plant response rating, Nutsedge, Yellow): 40%
- pest or weed control at 31 g/ha (yellow nutsedge; Cyperus, pre-emergence, 31 g ai/ha, preemergence, scale 0 to 100, read-out: Plant response rating, Nutsedge, Yellow): 0%
- pest or weed control at 125 g/ha (yellow nutsedge; Cyperus, pre-emergence, scale 0 (no effect) to 100 (complete control), visual, 12 to 14 days, read-out: Plant response rating, Nutsedge, Yellow): 0%
- Plant response rating (0 = no effect, 100 = complete control), Soybean (soybean; 62 g ai/ha, preemergence): 0
- plant injury at 250 g/ha (soybean; Glycine max, post-emergence, Postemergence, 250 g ai/ha, scale 0 to 100, 0 no effect, 100 complete control, read-out: Plant response rating, Soybean): 100%
- plant injury at 125 g/ha (soybean; Glycine max, post-emergence, postemergence, scale 0 to 100, read-out: Plant response rating, Soybean): 90%
- plant injury at 62 g/ha (soybean; Glycine max, post-emergence, postemergence, 62 g ai/ha, scale 0 to 100, read-out: Plant response rating, Soybean): 90%
- plant injury at 31 g/ha (soybean; Glycine max, pre-emergence, 31 g ai/ha, preemergence, scale 0 to 100, read-out: Plant response rating, Soybean): 0%
- plant injury at 125 g/ha (soybean; Glycine max, pre-emergence, scale 0 (no effect) to 100 (complete control), visual, 12 to 14 days, read-out: Plant response rating, Soybean): 0%
- pest or weed control at 31 g/ha ([2]; 31 g ai/ha, preemergence, scale 0 to 100): 0%
- pest or weed control at 125 g/ha ([2]; 125 g ai/ha, scale 0 (no effect) to 100 (complete control), visual, 12 to 14 days): 0%
- pest or weed control at 250 g/ha (velvetleaf [3]; post-emergence, Postemergence, 250 g ai/ha, scale 0 to 100, 0 no effect, 100 complete control): 100%
- pest or weed control at 125 g/ha (velvetleaf [3]; post-emergence, postemergence, scale 0 to 100): 100%
- pest or weed control at 62 g/ha (velvetleaf [3]; post-emergence, postemergence, 62 g ai/ha, scale 0 to 100): 100%
- pest or weed control at 31 g/ha (velvetleaf [3]; pre-emergence, 31 g ai/ha, preemergence, scale 0 to 100): 20%
- pest or weed control at 125 g/ha (velvetleaf [3]; pre-emergence, scale 0 (no effect) to 100 (complete control), visual, 12 to 14 days): 100%
- pest or weed control at 62 g/ha (ducksalad; 62 g ai/ha, scale 0 to 100 (0 no effect, 100 complete control), read-out: Ducksalad plant response rating): 20%
- pest or weed control at 125 g/ha (ducksalad; 125 g ai/ha, scale of 0 to 100, 0 is no effect, 100 is complete control, read-out: Ducksalad plant response rating): 20%
- pest or weed control at 250 g/ha (ducksalad; 250 g ai/ha, scale of 0 to 100, 0 is no effect, 100 is complete control, read-out: Ducksalad plant response rating): 20%
- pest or weed control at 500 g/ha (ducksalad; 500 g ai/ha, visual rating after 12 to 14 days, scale 0 to 100 (0 no effect, 100 complete control), read-out: Plant response rating, Ducksalad): 40%
- pest or weed control at 62 g/ha (barnyardgrass; 62 g ai/ha, scale 0 to 100 (0 no effect, 100 complete control), read-out: Barnyardgrass plant response rating): 0%
- pest or weed control at 125 g/ha (barnyardgrass; 125 g ai/ha, scale of 0 to 100, 0 is no effect, 100 is complete control, read-out: Barnyardgrass plant response rating): 20%
- pest or weed control at 250 g/ha (barnyardgrass; 250 g ai/ha, scale of 0 to 100, 0 is no effect, 100 is complete control, read-out: Barnyardgrass plant response rating): 40%
- pest or weed control at 500 g/ha (barnyardgrass; 500 g ai/ha, visual rating after 12 to 14 days, scale 0 to 100 (0 no effect, 100 complete control), read-out: Plant response rating, Barnyardgrass): 60%

From patent US20060069132A1, “Azolecarboxamide herbicides” (priority 2004, published 2006)
